Test results from US9877957B2, “Tetrahydroisoquinoline derivatives useful as inhibitors of diacylglyceride O-acyltransferase 2” (Merck Sharp & Dohme Corp., priority 2014, dated 2018).
pIC50: −log10 of the molar value.

Target: hDGAT2 (Homo sapiens (Human), UniProt Q96PD7)
Experiment: DGAT2 Enzymatic Activity Assay (triolein formation, LC/MS/MS)
Assay type: biochemical
Settings: Sf-9 membrane prep expressing hDGAT2; 25 μM diolein, 10 μM oleoyl-CoA; room temperature; read-out: IC50 values for inhibition of DGAT2
Procedure, shortened: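 Untagged hDGAT2 in Sf-9 membranes (10 ng/μL) with 25 μM diolein and 10 μM oleoyl-CoA in 100 mM Tris·Cl pH 7.0, 20 mM MgCl2, 5% ethanol at room temperature. Triolein measured by LC/MS/MS against spiked internal standard; IC50 from 4-parameter sigmoidal fit of % inhibition.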

Chain of hDGAT2 (Q96PD7 whole entry): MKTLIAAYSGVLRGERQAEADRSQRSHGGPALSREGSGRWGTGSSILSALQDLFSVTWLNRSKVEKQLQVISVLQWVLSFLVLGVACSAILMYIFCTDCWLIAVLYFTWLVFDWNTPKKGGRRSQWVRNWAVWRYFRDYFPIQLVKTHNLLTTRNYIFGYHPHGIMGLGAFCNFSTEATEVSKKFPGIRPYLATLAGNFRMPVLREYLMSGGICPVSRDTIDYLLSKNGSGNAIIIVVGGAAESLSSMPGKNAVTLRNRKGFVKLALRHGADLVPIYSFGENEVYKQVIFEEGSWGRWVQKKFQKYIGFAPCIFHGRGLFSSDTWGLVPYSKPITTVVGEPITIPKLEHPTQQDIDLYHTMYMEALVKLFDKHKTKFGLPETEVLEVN

pIC50	Structure (SMILES)
6.75	CC(C)(C)NC(=O)N1CCc2c(-c3cccc(C(F)(F)F)c3)ccc(C(=O)NCCn3cnnc3)c2C1 [Example 71, N^8-(2-(4H-1,2,4-triazol-4-yl)ethyl)-N^2-(tert-butyl)-5-(3-(trifluoromethyl)phenyl)-3,4-dihydroisoquinoline-2,8(1H)-dicarboxamide]
6.18	CC(NC(=O)c1ccc(-c2cccc(C(F)(F)F)c2)c2c1CN(C(=O)NC(C)(C)C)CC2)c1nncs1 (centres unmarked) [Example 72, N^8-(1-(1,3,4-thiadiazol-2-yl)ethyl)-N^2-(tert-butyl)-5-(3-(trifluoromethyl)phenyl)-3,4-dihydroisoquinoline-2,8(1H)-dicarboxamide]
6.29	CC(NC(=O)c1ccc(-c2cccc(OC(F)(F)F)c2)c2c1CN(C(=O)NC(C)(C)C)CC2)c1nc(-c2ccccn2)no1 (centres unmarked) [Example 73, N^2-(tert-butyl)-N^8-(1-(3-(pyridin-2-yl)-1,2,4-oxadiazol-5-yl)ethyl)-5-(3-(trifluoromethoxy)phenyl)-3,4-dihydroisoquinoline-2,8(1H)-dicarboxamide]
5.81	CC(C)(C)NC(=O)N1CCc2c(-c3cccc(OC(F)(F)F)c3)ccc(C(=O)NCc3cn4ccsc4n3)c2C1 [Example 74, N^2-(tert-butyl)-N^8-(imidazo[2,1-b]thiazol-6-ylmethyl)-5-(3-(trifluoromethoxy)phenyl)-3,4-dihydroisoquinoline-2,8(1H)-dicarboxamide]
5.60	CC(C)(C)NC(=O)N1CCc2c(-c3cccc(OC(F)(F)F)c3)ccc(C(=O)NCc3nnc4n3CCC4)c2C1 [Example 75, N^2-(tert-butyl)-N^8-((6,7-dihydro-5H-pyrrolo[2,1-c][1,2,4]triazol-3-yl)methyl)-5-(3-(trifluoromethoxy)phenyl)-3,4-dihydroisoquinoline-2,8(1H)-dicarboxamide]
5.59	CC(C)(C)NC(=O)N1CCc2c(-c3cccc(OC(F)(F)F)c3)ccc(C(=O)NCCn3ccnn3)c2C1 [Example 76, N^8-(2-(1H-1,2,3-triazol-1-yl)ethyl)-N^2-(tert-butyl)-5-(3-(trifluoromethoxy)phenyl)-3,4-dihydroisoquinoline-2,8(1H)-dicarboxamide]
6.06	CC(CNC(=O)c1ccc(-c2cccc(OC(F)(F)F)c2)c2c1CN(C(=O)NC(C)(C)C)CC2)c1cnco1 (centres unmarked) [Example 77, N^2-(tert-butyl)-N^8-(2-(oxazol-5-yl)propyl)-5-(3-(trifluoromethoxy)phenyl)-3,4-dihydroisoquinoline-2,8(1H)-dicarboxamide]
5.93	CC(CNC(=O)c1ccc(-c2cccc(OC(F)(F)F)c2)c2c1CN(C(=O)NC(C)(C)C)CC2)c1cccnc1 (centres unmarked) [Example 78, N^2-(tert-butyl)-N^8-(2-(pyridin-3-yl)propyl)-5-(3-(trifluoromethoxy)phenyl)-3,4-dihydroisoquinoline-2,8(1H)-dicarboxamide]
6.83	CC(C)(C)NC(=O)N1CCc2c(-c3cccc(OC(F)(F)F)c3)ccc(C(=O)NCc3cccc4ccnn34)c2C1 [Example 79, N^2-(tert-butyl)-N^8-(pyrazolo[1,5-a]pyridin-7-ylmethyl)-5-(3-(trifluoromethoxy)phenyl)-3,4-dihydroisoquinoline-2,8(1H)-dicarboxamide]
6.28	CC(C)(C)NC(=O)N1CCc2c(-c3cccc(OC(F)(F)F)c3)ccc(C(=O)NCc3cc(-c4ccccn4)no3)c2C1 [Example 80, N^2-(tert-butyl)-N^8-((3-(pyridin-2-yl)isoxazol-5-yl)methyl)-5-(3-(trifluoromethoxy)phenyl)-3,4-dihydroisoquinoline-2,8(1H)-dicarboxamide]
6.43	CC(C)(C)NC(=O)N1CCc2c(-c3cccc(OC(F)(F)F)c3)ccc(C(=O)NCc3cnn4ccccc34)c2C1 [Example 81, N^2-(tert-butyl)-N^8-(pyrazolo[1,5-a]pyridin-3-ylmethyl)-5-(3-(trifluoromethoxy)phenyl)-3,4-dihydroisoquinoline-2,8(1H)-dicarboxamide]
